According to US5863776A, “Method of preparing apoenzyme” (Research Development Foundation, priority 1996, dated 1999):
Entries after “also recorded” stand apart in the source; their conditions may differ.

T1: MAO B (Homo sapiens, UniProt P27338)
T1 construct: expressed in transfected cells; host or cells: COS-7 (African green monkey), riboflavin-containing (Rib+) or riboflavin-depleted (Rib-), transient electroporation
T1 sequence (P27338 1-520): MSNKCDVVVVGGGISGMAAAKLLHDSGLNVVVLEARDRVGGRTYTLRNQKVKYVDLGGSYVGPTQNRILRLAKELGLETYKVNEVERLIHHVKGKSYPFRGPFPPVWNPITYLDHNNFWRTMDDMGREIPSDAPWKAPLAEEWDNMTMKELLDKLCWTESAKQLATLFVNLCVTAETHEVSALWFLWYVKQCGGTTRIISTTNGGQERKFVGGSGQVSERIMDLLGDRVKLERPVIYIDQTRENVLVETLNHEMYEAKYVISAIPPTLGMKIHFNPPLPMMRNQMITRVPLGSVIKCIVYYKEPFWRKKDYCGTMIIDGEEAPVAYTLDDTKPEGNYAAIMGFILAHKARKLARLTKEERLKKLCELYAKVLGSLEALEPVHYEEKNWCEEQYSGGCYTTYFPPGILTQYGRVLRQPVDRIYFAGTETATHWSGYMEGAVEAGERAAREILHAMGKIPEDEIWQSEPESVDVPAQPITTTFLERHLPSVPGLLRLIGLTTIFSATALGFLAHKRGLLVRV


How the values were obtained:
MAO B [1] = biological target: T1, MAO B; assay: FAD coupling in intact cells: MAO B enzymatic activity after electroporation of MAO B cDNA with cofactor into Rib^- COS-7 cells ([^14 C] benzylamine substrate); type: cell-based; design: Percent of Holo-MAO B Activity: concentration or dose not given beside the values
Protocol: (§1) Wild-type or mutant MAO B cDNAs were transiently transfected into COS-7 cells by electroporation (23) as previously described (18). Briefly, Rib^+ - or Rib^- COS-7 cells were harvested during late log phase growth and resuspended to a concentration of 3.1×10^6 cells/ml in either riboflavin-containing or riboflavin-free medium, respectively. Wild-type or mutant MAO B cDNAs ([…]) were added to 0.8 ml of cell suspension. […] Electroporation was carried out in a Bio-Rad Gene Pulser with a setting of 250 V and 500 μF. Cells were resuspended in 15 ml of riboflavin-containing or riboflavin-free medium and incubated at 37° C. with 5% CO2. Transfected COS-7 cells were harvested at 48 hours and homogenized in a lysis solution containing 20 mM Tris-HCl, 1 mM EDTA, 0.5 mM PMSF, pH 8.0. The homogenate was diluted with an equal volume of the same buffer supplemented with 300 mM NaCl to obtain a 150 mM final NaCl concentration. Triton X-100 (Pierce) was added to the lysate to give a final concentration of 0.25%, and the samples were allowed to stir for 50 min. at 4° C. to extract MAO B from the outer mitochondrial membrane. After Triton extraction, the lysate was centrifuged at 1300×g for 5 min. at 4° C. to remove insoluble cell debris.
(§2) MAO B activity was assayed radiometrically by a modification of the method of Wurtman and Axelrod (26) as described previously (18). Briefly, the reaction mixture contained 200 μl of 50 mM sodium phosphate buffer (pH 7.4), 3.6 nmole of 55 mCi/mmol [^14 C] benzylamine hydrochloride (Amersham), 10 nmoles of unlabeled benzylamine and 10 μl of cell lysate. Samples were run in triplicate, and one out of each set was denatured with […] of 6N HCl prior to the addition of substrate to serve as an internal control. All reactions were incubated for 9 minutes at 37° C., and terminated by the addition of 25 μl of 6N HCl. The reaction product was extracted with 500 μl of toluene, and an aliquot (200 μl) of the organic phase from each sample was counted in liquid scintillation fluid (Bio-Safe) in a Beckman LB 3801 scintillation counter.
FMN or riboflavin were also capable of restoring approximately 75% of MAO B holoenzyme activity. However, only 40% of MAO B holoenzyme activity was obtained by the addition of 8α-hydroxyriboflavin.
Various cofactors were added with MAO B cDNA into Rib^- COS7 cells

MAO B [2] = biological target: T1, MAO B; assay: Quantitation of expressed MAO B protein by ELISA in transfected COS-7 cells; type: cell-based; design: MAO B Expressed: unit not given here; details: cofactor added with MAO B cDNA into Rib^- COS-7 cells; 48 hours; mean ± SE, three experiments
Protocol: Total protein concentrations of samples containing MAO B holoenzyme, apoenzyme, or variant MAO Bs were determined by a MicroBCA kit (Pierce). All samples were then adjusted to equal protein concentrations and assayed for MAO B protein by ELISA using a modification of the method of Yeomanson and Billett (25) as described previously (18).
MAO B cDNA was expressed sequentially at different time intervals in these cells during this riboflavin depletion process (FIG. 2). Each data point in FIG. 2 represents an individual expression assay. For each assay, a sample of COS-7 cells grown in riboflavin-free medium were transfected with MAO B cDNA via electroporation. Concurrently, Rib^+ COS-7 cells were transfected with MAO B cDNA to serve as a control. Following incubation for 48 hours, the cells were homogenized and assays were performed to determine protein concentration, MAO B concentration by ELISA using polyclonal antibodies, and MAO B activity using [^14 C] benzylamine.
An equal amount of MAO B cDNA (15 μg) was expressed in both types of […]

MAO B [3] = biological target: T1, MAO B; assay: FAD coupling in vitro (flavinylation assay in cell lysate, 30° C.); type: biochemical; details: 30° C.
Protocol: (- - - x - - - ). […] The enzymatic activity of each sample was determined at 1 hour time intervals using [^14 C] benzylamine as substrate.
Apo-MAO B was obtained by expressing MAO B cDNA in Rib^- COS-7 cells. The cells were then harvested and homogenized as described above. One half of the lysate was stirred in the presence of 0.25% Triton X-100 at 4° C. for 50 min. to extract apo-MAO B from the outer mitochondrial membrane. The second half of the lysate was not extracted with Triton X-100 to permit MAO B to remain in the membrane. […] Assays were also carried out in the presence of an energy mixture (10 mM ATP, 32 mM PEP and 2.4 μg pyruvate kinase) and 25% glycerol in the reaction vials. Each sample was run in triplicate. After 1, 2 or 3 hours incubation at 30° C., each sample was assayed for MAO B activity as described below.
as §2

[4] = system: L-gulono-g-lactone oxidase; details: cited from earlier work
MAO B [5] = assay: [^14 C] FAD incorporation into wild-type or mutant MAO B in Rib^- COS-7 cells (immunoprecipitation, fluorography); type: binding, human; details: about 59 kDa; equal MAO B concentrations
Protocol: Mutagenesis was carried out by the method of Deng and Nickoloff (22) using a Transformer Site-directed Mutagenesis kit (Clontech). Glu in position 34 was replaced with Asp (E34D), Gln (E34Q), or Ala (E34A), and Val in position 10 was replaced with Ile (V10I) as described by Kwan et al. (18).
as §1
Transfected Rib^+ - or Rib^- COS-7 cells were homogenized, and extracted with 0.25% Triton X-100 for 50 minutes at 4° C. The cell lysates were centrifuged at 1300×g for 5 minutes, and an aliqout of each supernatant was analyzed for MAO B concentration by ELISA. All supernatants were then adjusted to equal MAO B concentration and incubated with polyclonal goat anti-MAO B antibody (10 μg) overnight at 4° C. Protein-G Sepharose beads (Pierce) were added (50 μl) and incubation was continued for 3 hours. The protein-G Sepharose/goat antibody/MAO B immmunocomplex was collected by centrifugation at 10,000×g for 20 seconds and washed 6 times with 150 μl of 20 mM Tris buffer, pH 8.0. The immunocomplex was then dissolved in SDS-PAGE sample buffer and analyzed by Western blot or fluorography.
The immunoprecipitated proteins (obtained as described above) were subjected to electrophoresis in a 10% SDS-polyacrylamide gel and examined by Western blotting as previously described (18). The immunoprecipitated proteins (obtained as described above) were subjected to electrophoresis in a 10% SDS-polyacrylamide gel. The SDS-PAGE gel was fixed by soaking in 7% acetic acid, 10% methanol, 83% H2 O for 1 hour, and then processed for fluorography as described by Bonner and Laskey (27). The dried gel was exposed to Kodak X-OMAT AR film at -80° C. for 2 weeks.
The expressed wild-type and variant MAO Bs were adjusted to equal concentrations using ELISA before immunoprecipitation, and then analyzed by fluorography. The amount of incorporation of [^14 C] […] FAD was incorporated into the enzyme.

MAO B [6] = details: mutation at Glu^34; cited from earlier work

Percent of Holo-MAO B Activity (MAO B [1]; relative to holo-MAO B expressed in Rib^+ COS-7 cells, 2880 min) | MAO B Expressed (MAO B [2]) | Molecule | restoration of active MAO B (in words) (MAO B [1]; cofactor added with MAO B cDNA during electroporation) | Enzymatic Activity (MAO B [1]; cofactor added with MAO B cDNA into Rib^- COS-7 cells, 48 hours, mean ± SE, three experiments) | MAO B catalytic activity after adding exogenous FAD to apo-MAO B (MAO B [3]; Triton extracted or non-extracted lysate) | MAO B activity after adding exogenous FAD to apo-MAO B (MAO B [3]; with energy mixture and glycerol) | covalently bound FAD [4] | enzymatic activity upon addition of FAD [4] | [^14 C] FAD incorporation (band on fluorogram) (MAO B [5]) | loss of activity (in words) (MAO B [6])
~75% | 0.86 ± 0.03 | Cc1cc2nc3c(=O)[nH]c(=O)nc-3n(C[C@H](O)[C@H](O)[C@H](O)COP(=O)(O)OP(=O)(O)OC[C@H]3O[C@@H](n4cnc5c(N)ncnc54)[C@H](O)[C@@H]3O)c2cc1C [FAD] | equal levels of MAO B activity; also recorded: active MAO B (containing FAD) was obtained | 0.85 ± 0.01 μmol benzylamine/minute/mg MAO | no MAO B catalytic activity was observed; also recorded: MAO B activity could not be regenerated | no MAO B activity was obtained; also recorded: unsuccessful | no covalently bound FAD could be obtained | Enzymatic activity was observed | – | –
– | – | E34A: MAO B with Glu in position 34 replaced with Ala (protein, UniProt P27338 2-520, looked up, variant E34A) Amine oxidase …: SNKCDVVVVGGGISGMAAAKLLHDSGLNVVVLAARDRVGGRTYTLRNQKVKYVDLGGSYVGPTQNRILRLAKELGLETYKVNEVERLIHHVKGKSYPFRGPFPPVWNPITYLDHNNFWRTMDDMGREIPSDAPWKAPLAEEWDNMTMKELLDKLCWTESAKQLATLFVNLCVTAETHEVSALWFLWYVKQCGGTTRIISTTNGGQERKFVGGSGQVSERIMDLLGDRVKLERPVIYIDQTRENVLVETLNHEMYEAKYVISAIPPTLGMKIHFNPPLPMMRNQMITRVPLGSVIKCIVYYKEPFWRKKDYCGTMIIDGEEAPVAYTLDDTKPEGNYAAIMGFILAHKARKLARLTKEERLKKLCELYAKVLGSLEALEPVHYEEKNWCEEQYSGGCYTTYFPPGILTQYGRVLRQPVDRIYFAGTETATHWSGYMEGAVEAGERAAREILHAMGKIPEDEIWQSEPESVDVPAQPITTTFLERHLPSVPGLLRLIGLTTIFSATALGFLAHKRGLLVRV | – | – | – | – | – | – | did not exhibit bands | complete loss of activity; also recorded: devoid of enzymatic activity
– | – | E34Q: MAO B with Glu in position 34 replaced with Gln (protein, UniProt P27338 2-520, looked up, variant E34Q) Amine oxidase …: SNKCDVVVVGGGISGMAAAKLLHDSGLNVVVLQARDRVGGRTYTLRNQKVKYVDLGGSYVGPTQNRILRLAKELGLETYKVNEVERLIHHVKGKSYPFRGPFPPVWNPITYLDHNNFWRTMDDMGREIPSDAPWKAPLAEEWDNMTMKELLDKLCWTESAKQLATLFVNLCVTAETHEVSALWFLWYVKQCGGTTRIISTTNGGQERKFVGGSGQVSERIMDLLGDRVKLERPVIYIDQTRENVLVETLNHEMYEAKYVISAIPPTLGMKIHFNPPLPMMRNQMITRVPLGSVIKCIVYYKEPFWRKKDYCGTMIIDGEEAPVAYTLDDTKPEGNYAAIMGFILAHKARKLARLTKEERLKKLCELYAKVLGSLEALEPVHYEEKNWCEEQYSGGCYTTYFPPGILTQYGRVLRQPVDRIYFAGTETATHWSGYMEGAVEAGERAAREILHAMGKIPEDEIWQSEPESVDVPAQPITTTFLERHLPSVPGLLRLIGLTTIFSATALGFLAHKRGLLVRV | – | – | – | – | – | – | did not exhibit bands | complete loss of activity; also recorded: devoid of enzymatic activity
